Data: PMC7332792 (Acta Pharmaceutica Sinica. B, 2020)
Bridge positions count the residues as written; N and C are the ends. Ends that are not written are not given here.

T1: human LAG-3 protein (human, UniProt P18627, labeled with Red-NHS647 dye (in the MST assay))
T1 sequence: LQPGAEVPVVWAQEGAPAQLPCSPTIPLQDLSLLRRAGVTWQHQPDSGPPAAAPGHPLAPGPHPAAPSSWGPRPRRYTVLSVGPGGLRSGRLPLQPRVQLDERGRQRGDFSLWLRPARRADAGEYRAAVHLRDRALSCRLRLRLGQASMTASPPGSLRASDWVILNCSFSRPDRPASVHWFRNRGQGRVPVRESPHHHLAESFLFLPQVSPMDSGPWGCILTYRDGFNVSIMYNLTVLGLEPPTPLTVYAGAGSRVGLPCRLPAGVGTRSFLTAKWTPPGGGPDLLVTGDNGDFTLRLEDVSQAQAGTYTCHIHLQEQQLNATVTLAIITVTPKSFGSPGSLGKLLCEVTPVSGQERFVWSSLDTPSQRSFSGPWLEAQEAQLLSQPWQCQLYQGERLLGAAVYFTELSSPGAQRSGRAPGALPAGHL


Tests used:
[1] = molecular target: T1, human LAG-3 protein; experiment: MST

Molecule | immune response (immunogenicity) in mice (mice with or without CT26 xenograft) | IgG levels in the blood (naïve mice and CT26 tumor bearing mice after 14 days of C25 treatment, ELISA, versus control, n = 5) | Kd [1]
CSCC[C@@H]1NC(=O)[C@@H]2CCCN2C(=O)[C@H](C(C)C)NC(=O)[C@@H](N)CSSC[C@@H](C(=O)O)NC(=O)[C@H](C)NC(=O)[C@H](CCCNC(=N)N)NC(=O)[C@H](Cc2ccc(O)cc2)NC(=O)[C@H]([C@@H](C)O)NC1=O [C25] | did not cause significant immune response in mice | not significantly different from those in the control group | 
CNMHTPMVC (disulfide 1-9) [cyclic peptide C17] |  |  | 1.83 µM
CNWMINKEC (disulfide 1-9) [cyclic peptide C19] |  |  | 5.05 µM
